Results from US6255517A, “Thymol derivatives having anti-tumor activity, and anti-cancer agent comprising the same” (Zee; Ok Pyo, priority 1998, dated 2001).
Where two headings read alike, the source gives them in different places.

How the values were obtained:
Assay type in all cases: cell-based
HCT15 = experiment: SRB cytotoxicity (anti-tumor activity) in vitro, HCT15; settings: Homo sapiens, HCT-15, HCT15 colon adenocarcinoma, 48 hours, read-out: ED50 (the source's name)
From the text: (§1) Anti-Tumor (Cyto-Toxicity) Effect in vitro of the Compound According to the Present Invention
(§2) The method for detecting cyto-toxicity employed in the present experiment is Sulforhodamin B Bioassay (SRB) method, which was developed by National Cancer Institute (NCI) in the United States in 1989, for the purpose of measuring anti-tumor activity in vitro.
(§3) The tumor cells used in the experiments via SRB method are listed below:
HCT15: colon adenocarcinoma
(§4) The tumor cells listed above are all human tumor cell-lines, which were distributed from NCI in the United States and subcultured in Korea Chemical Institute. As a culture medium, RPMI 1640 culture medium supplemented with 5% FBS (fetal bovine serum) was used. Cultivation was performed in an 5% CO2 incubator with constant temperature (37° C.) and humidity. The subculture was carried out every three or four days, and a solution of 0.25% tyrosine and 3 mM trans-1,2-diaminocyclohexane-n,n,n,n-tetracetic acid (CDTA) dissolved in PBS (phosphate buffered saline) was used in order to release cells from the surface of the container.
(§5) The test compound synthesized according to the present invention was diluted to have a concentration of 30.0 μg/ml, 10.0 μg/ml, 3.0 μg/ml, 1.0 μg/ml, 0.3 μg/ml and 0.1 μg/ml, respectively, and the cyto-toxicity (anti-tumor activity) of the compound was measured. The maximum concentration of the sample was not more than 30.0 μg/ml. In order to prepare the samples for detection, DMSO (dimethylsulfoxide) was used, if necessary. The concentration of DMSO added was not more than 0.5%. Before added to the tumor cells, the sample solution, which was diluted via several steps, is filtered through a Millipore filter. In a sterile condition, the sample for detecting cyto-toxicity was prepared by means of SRB method using human tumor cell-lines such as A549, SK-OV-3, SK-MEL-2, XF498 and HCT15.
(§6) The subcultured tumor cells were released from the surface of instrument by using tyrosine-CDTA solution, and then charged on a 96-well flat bottom microplate to make the cell number 5×10^3 (A549, HCT15), 1×10^4 (SK-MEL-2, XF498) and 2×10^4 (SK-OV-3) for each cell. The tumor cells are attached on the bottom by cultivating in a CO2 incubator. After removing the culture medium by using an aspirator, the medium is eliminated by using log dose of six concentrations. To each well, 100 μl of 10% TCA (trichloroacetic acid) is added, and the plate was left for 1 hour at 4° C. to fix the cells on the bottom surface of the plate.
(§7) Then, the plate was washed with distilled water 5-6 times to completely remove the residual TCA solution, and dried up at room temperature. To each well of the completely dried plate, 100 μl of dye solution, in which 0.4% SRB solution was dissolved, was added to dye the cells for 30 minutes, and the cells were washed with 1% acetic acid to remove excess SRB which was not combined with the cells. The dyed cell plates were dried at room temperature, and 100 μl of 10 mM trisma base solution was added to each well. The solution was mixed by a titer plate shaker for 10 minutes to elute the dye solution. Then, the absorbance at 520 nm was measured by using a microplate reader.
(§8) In order to calculate the cyto-toxicity (anti-tumor activity) of the samples on tumor cells, the number of tumor cells at the point of adding the sample (Tz, zero time), the number of cells when only an excess amount of culture medium was added instead of the sample and cultured for 48 hours (C, control), and the number of cells when each concentration of the sample was added and cultured for 48 hours (T, test) were measured respectively. The cyto-toxicity was determined according to the following formulas:
(§9) When Tz>T: [(T-Tz)/(C-Tz)]×100
(§10) When Tz<T: [(T-Tz)/Tz]×100
(§11) From the calculated values thus obtained, ED50 (50% effective dose) [the concentration when the sample inhibits 50% of the growth of the tumor cells] was determined by the use of data regression tool of LOTUS program. […]

A549 = experiment: SRB cytotoxicity (anti-tumor activity) in vitro, A549; settings: Homo sapiens
From the text: as §1, §2, §3
A549: non small cell lungcarcinoma
as §4, §5, §6, §7, §8, §9, §10, §11

SK-OV-3 = experiment: SRB cytotoxicity (anti-tumor activity) in vitro, SK-OV-3; settings: Homo sapiens, SK-OV-3 ovary adenocarcinoma, 48 hours, read-out: ED50 (the source's name)
From the text: as §1, §2, §3
SK-OV-3: adenocarcinoma, ovary malignant ascites
as §4, §5, §6, §7, §8, §9, §10, §11

SK-MEL-2 = experiment: SRB cytotoxicity (anti-tumor activity) in vitro, SK-MEL-2; settings: Homo sapiens, SK-MEL-2 malignant melanoma, 48 hours, read-out: ED50 (the source's name)
From the text: as §1, §2, §3
SK-MEL-2: malignant melanoma, metastasis to skin of thigh
as §4, §5, §6, §7, §8, §9, §10, §11

XF498 = experiment: SRB cytotoxicity (anti-tumor activity) in vitro, XF498; settings: Homo sapiens, XF498 central nerve system tumor, 48 hours, read-out: ED50 (the source's name)
From the text: as §1, §2, §3
XF498: central nerve system tumor
as §4, §5, §6, §7, §8, §9, §10, §11

[1] = A549 non small cell lung carcinoma, SRB, 48 hours, read-out: ED50 (the source's name)

Structure (SMILES) | IC50 (HCT15) [µM] | IC50 (A549; [1]) [µM] | IC50 (SK-OV-3) [µM] | IC50 (SK-MEL-2) [µM] | IC50 (XF498) [µM] | IC50 (A549; A549, 48 h, read-out: ED50) [µM]
C=C(COS(=O)(=O)c1ccc(OC)cc1)c1ccc(C)cc1OC(C)=O [13'-3, 10-(4-Methoxybenzenesulfoxy)-8,9-methylenethymol acetate] | 2.6 | 28.2 | 27.4 | 8.4 | – | –
Cc1ccc(C2(COC(=O)C(C)C)CO2)c(OC(=O)C(C)C)c1 (stereo not shown) [Compound 11, 10-isobutyryloxy-8,9-epoxythymol isobutyrate] | 10.8 | 40.5 | 8.3 | 11.6 | 37.2 | –
Cc1ccc(C2(COC(=O)Cc3ccccc3)CO2)c(OC(=O)C(C)C)c1 (stereo not shown) [Compound 11-1, 10-Phenylacetoxy-8,9-epoxythymol isobutyrate] | 9.5 | – | 7.9 | 10.5 | 32.5 | 35.5
Cc1ccc(C2(COC(=O)Cc3ccc([N+](=O)[O-])cc3)CO2)c(OC(=O)C(C)C)c1 (stereo not shown) [Compound 11-2, 10-(4-Nitrophenylacetoxy)-8,9-epoxythymol isobutyrate] | 8.7 | 32.1 | 14 | 9.9 | 28.4 | –
Cc1ccc(C2(COC(=O)Cc3ccc(F)cc3)CO2)c(OC(=O)C(C)C)c1 (stereo not shown) [Compound 11-3, 10-(4-Fluorophenylacetoxy)-8,9-epoxythymol isobutyrate] | 0.6 | 10.7 | 1 | 3.7 | 3.1 | –
CC(=O)Oc1cc(C)ccc1C1(COC(=O)Cc2ccc([N+](=O)[O-])cc2)CO1 (stereo not shown) [Compound 14-3, 10-(4-Nitrophenylacetoxy)-8,9-epoxythymol acetate] | 10.6 | 38.3 | 25.6 | 11 | 35.4 | –
CC(=O)OCC1(c2ccc(C)cc2OC(C)=O)CO1 (stereo not shown) [Compound 14-8, 10-Acetoxy-8,9-epoxythymol acetate] | 13.3 | 51.2 | 12.6 | 14.9 | 45.5 | –
CC(=O)Oc1cc(C)ccc1C(O)(CO)COC(=O)Cc1ccccc1 (stereo not shown) [Compound 15-1, 10-Phenylacetoxy-8,9-dihydroxythymol acetate] | 11.6 | – | 39.9 | 14.8 | 59.9 | > 100
CC(=O)Oc1cc(C)ccc1C(O)(CO)COC(=O)Cc1ccc([N+](=O)[O-])cc1 (stereo not shown) [Compound 15-2, 10-(4-Nitrophenylacetoxy)-8,9-dihydroxythymol acetate] | 20.2 | > 100 | 25.8 | 12.8 | 45.1 | –
COc1ccc(CC(=O)OCC(O)(CO)c2ccc(C)cc2OC(C)=O)cc1 (stereo not shown) [Compound 15-4, 10-(4-Methoxyphenylacetoxy)-8,9-dihydroxythymol acetate] | 11.2 | > 100 | 21.3 | 12 | 55.7 | –
CC(=O)Oc1cc(C)ccc1C(O)(CO)COC(=O)c1ccccc1 (stereo not shown) [Compound 15-5, 10-Benzoxy-8,9-dihydroxythymol acetate] | 12.7 | > 100 | 35.1 | 16.6 | 60.4 | –
CC(=O)Oc1cc(C)ccc1C(O)(CO)COC(=O)c1ccc([N+](=O)[O-])cc1 (stereo not shown) [Compound 15-6, 10-(4-Nitrobenzoxy)-8,9-dihydroxythymol acetate] | 10.4 | > 100 | 19.6 | 10.9 | 40.9 | –
COc1ccc(C(=O)OCC(O)(CO)c2ccc(C)cc2OC(C)=O)cc1 (stereo not shown) [Compound 15-7, 10-(4-Methoxybenzoxy)-8,9-dihydroxythymol acetate] | 15 | > 100 | 38.2 | 14.9 | 63.3 | –
Cc1ccc(C(O)(CO)COC(=O)Cc2ccc(F)cc2)c(OC(=O)C(C)C)c1 (stereo not shown) [Compound 15-8, 10-(4-Fluorophenylacetoxy)-8,9-dihydroxythymol isobutyrate] | 12.2 | > 100 | 24.2 | 10.8 | 55.9 | –
CC(=O)Oc1ccc(C2(COC(=O)Cc3ccccc3)CO2)c(OC(C)=O)c1 (stereo not shown) [Compound 27-1, 2-(2',4'-Diacetoxyphenyl)-3-phenylacetoxy-1,2-epoxypropane] | 3 | – | 2.9 | 4.5 | 4.7 | 30.6
CC(=O)Oc1ccc(C2(COC(=O)Cc3ccc([N+](=O)[O-])cc3)CO2)c(OC(C)=O)c1 (stereo not shown) [Compound 27-2, 2-(2',4'-Diacetoxyphenyl)-3-(4-nitrophenylacetoxy)-1,2-epoxypropane] | 2.4 | 23.5 | 2.7 | 3.8 | 4.1 | –
CC(=O)Oc1ccc(C2(COC(=O)Cc3ccc(F)cc3)CO2)c(OC(C)=O)c1 (stereo not shown) [Compound 27-3, 2-(2',4'-Diacetoxyphenyl)-3-(4-fluorophenylacetoxy)-1,2-epoxypropane] | 4.5 | 36.7 | 3.9 | 9.3 | 11 | –
CC(=O)OCC1(c2ccc(OC(C)=O)cc2OC(C)=O)CO1 (stereo not shown) [Compound 27-5, 2-(2',4'-Diacetoxyphenyl)-3-acetoxy-1,2-epoxypropane] | 1.4 | 18.6 | 2.9 | 4.8 | 5 | –
CC(=O)Oc1ccccc1C1(COC(=O)Cc2ccccc2)CO1 (stereo not shown) [Compound 33-1] | 10.4 | – | 11.5 | 9.3 | 9.8 | 42.8
CC(=O)Oc1ccccc1C1(COC(=O)Cc2ccc([N+](=O)[O-])cc2)CO1 (stereo not shown) [Compound 33-2] | 17.3 | 44.3 | 24.4 | 14.2 | 16.4 | –
CC(=O)Oc1ccccc1C1(COC(=O)c2ccccc2)CO1 (stereo not shown) [Compound 33-5] | 7 | 43.3 | 9.9 | 8.5 | 6.2 | –
CC(=O)Oc1ccccc1C1(COC(=O)c2ccc(C)cc2)CO1 (stereo not shown) [Compound 33-6] | 9.3 | 41.4 | 10.6 | 6.9 | 8.7 | –
C=C(CO)c1ccc(C)cc1OCc1ccc([N+](=O)[O-])cc1 [Compound 35, 2-(2-(4'-nitrobenzyloxy)-4-methylphenyl)-prop-2-ene-1-ol] | 8.7 | 4.6 | 0.3 | 9.1 | 5.5 | –
C=C(CO)c1ccc(C)cc1OCc1ccc(OC)cc1 [Compound 35-1] | 12.1 | 10.6 | 13.1 | 12.7 | 11.8 | –
C=C(CO)c1ccc(C)cc1OCc1ccc(C)cc1 [Compound 35-2, 2-(2-(4'-Methylbenzyloxy)-4-methylphenyl)-prop-2-ene-1-ol] | 9.1 | 10.9 | 9.6 | 8.8 | 7.2 | –
